Assay [1] relates to healthy postmenopausal women. Description: Supplementation of healthy postmenopausal women with lycopene: oxidative stress and bone turnover markers. Particulars: 30 mg/day for 6 months. Format: in vivo, human.
Assay [2] deals with postmenopausal women. Description: Postmenopausal women with high versus low dietary intake / serum lycopene: oxidative stress and bone markers. The note with it: women with higher serum lycopene. In kind it is in vivo, human. The text has this: Work of the inventors of the present invention, both experimental work and work with humans, provides evidence for a positive effect of the potent antioxidant “Lycopene” on bone health.

The structures appear in SMILES notation.

Regarding `CC(C)=CCC/C(C)=C/C=C/C(C)=C/C=C/C(C)=C/C=C/C=C(C)/C=C/C=C(C)/C=C/C=C(\C)CCC=C(C)C` [lycopene], in assay [1] (bone formation marker), the s-BALP entry was “increases” and the s-OC entry is reported as “increases”. Further, in assay [1] (bone resorption marker), the s-CTX result is given as “significant decreases” and the u-NTX result is “significant decreases”. Besides, in assay [1] (healthy postmenopausal women), the bone turnover markers result is reported as “significantly improved” and the oxidative stress result is given as “significantly improved”. In addition, in assay [2], the “bone formation markers (s-Osteocalcin and bone-specific ALP)” value is “improve”; the “bone resorption markers (u-NTX, s-CTX)” value is reported as “improve”; the “oxidative stress (lipid and protein oxidation, catalase and superoxide dismutase activities)” value is “reduced oxidative stress”.

These data come from US8563053B2, “Compositions and methods of natural products in nanoformulations for the prevention and treatment of osteoporosis” (priority 2009, dated 2013).
